In patent US20120095032A1, “METHODS FOR TREATING LEUKEMIA AND MYELODYSPLASTIC SYNDROME, AND METHODS FOR IDENTIFYING AGENTS FOR TREATING SAME” (Sanford-Burnham Medical Research Institute, priority 2007, published 2012):
Counter-ions that a name gives are not always drawn.

Tests used:
HePTP [1] = biological target: T1, HePTP (Homo sapiens, UniProt P35236); assay: HePTP HTS primary screen (colorimetric pNPP / Biomol Green); type: biochemical; conditions: 20 μM compound; read-out: % Inhib. at 20 μM
T1 sequence (P35236 1-360): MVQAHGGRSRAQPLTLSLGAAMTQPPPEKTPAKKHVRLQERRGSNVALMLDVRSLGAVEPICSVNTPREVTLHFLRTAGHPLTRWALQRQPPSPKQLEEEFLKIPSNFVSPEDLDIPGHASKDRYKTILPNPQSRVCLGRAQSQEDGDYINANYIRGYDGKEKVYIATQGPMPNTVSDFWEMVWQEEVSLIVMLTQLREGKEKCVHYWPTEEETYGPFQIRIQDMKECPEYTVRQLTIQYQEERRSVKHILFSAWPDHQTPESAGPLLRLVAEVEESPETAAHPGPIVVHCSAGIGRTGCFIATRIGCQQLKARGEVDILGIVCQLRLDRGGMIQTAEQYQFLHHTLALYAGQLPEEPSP
Description: (§1) The following assay can be conducted manually or can be carried out by a robotic station.
For this assay, HePTP catalyzes the following reaction:
wherein p-nitrophenyl phosphate serves as a substrate and is cleaved to form p-nitrophenol and phosphate. The liberated phosphate complexes with the Biomol Green™ reagent to provide a quantitative colorimetric value for the amount of substrate cleaved.
(§2) Compounds are then serially diluted in 100% DMSO, and then diluted with water to 10% final DMSO concentration.
(§3) The primary screening actives can then proceed to the dose-response confirmation stage.

HePTP [2] = biological target: T1, HePTP; assay: HePTP dose-response confirmation screening; type: biochemical; conditions: for IC50: 10 concentrations, 2-fold serial dilution, pNPP substrate; for n / nH (Hill coefficient): Hill coefficient of the dose-response curve
Description: as §1, §2, §3
* n represents the Hill coefficient. This coefficient is derived from the Hill equation which has the formula: […]
wherein θ is the fraction of ligand binding sites filled, L is the inhibitor concentration, Ka is the inhibitor concentration producing half occupation of the ligand binding sites, and n is the Hill coefficient.

Row | SMILES | inhibition at 20 µM (HePTP [1]) [%] | IC50 (HePTP [2]) [µM] | n / nH (Hill coefficient) (HePTP [2])
1 | O=C(c1ccc(=O)oc1)N1CCOCC1 | 54.1 | 0.99 | 1.02
2 | COc1ccc(Br)cc1/C=c1\sc2nc(-c3ccco3)nn2c1=O [3-[(5-Bromo-2-methoxy-phenyl)methylidene]-7-(2-furyl)-4-thia-1,6,8-triazabicyclo[3.3.0]octa-5,7-dien-2-one] | 95.3 | 0.42 | 2.5
3 | CC(C)CN(C(=O)COC(=O)c1cc2c(s1)CCC2)C1CCS(=O)(=O)C1 (stereo not drawn) [[(1,1-Dioxothiolan-3-yl)-(2-methylpropyl)carbamoyl]methyl 4-thiabicyclo[3.3.0]octa-2,9-diene-3-carboxylate] | 58.7 | 1.21 | 1.52
4 | O=C(Oc1ccccc1)c1ccc2c(c1)C1C=CCC1C(C(=O)O)N2 (stereo not drawn) [8-(phenoxycarbonyl)-3a,4,5,9b-tetrahydro-3H-cyclopenta[c]quinoline-4-carboxylic acid] | 96.4 | 0.84 | 3.34
5 | CC(C)Cn1c(N)c(C(=O)COC(=O)c2cc(-c3ccco3)nc3ccccc23)c(=O)n(C)c1=O [[2-[4-Amino-1-methyl-3-(2-methylpropyl)-2,6-dioxo-pyrimidin-5-yl]-2-oxo-ethyl] 2-(2-furyl)quinoline-4-carboxylate] | 89.7 | 5.27 | 2.48
6 | O=C1Nc2ccccc2SC(c2ccccc2)C1O (stereo not drawn) [4-Hydroxy-3-phenyl-2-thia-6-azabicyclo[5.4.0]undeca-7,9,11-trien-5-one] | 67.2 | 1.15 | 2.13
7 | COc1ccc2c(c1)=CC(=C1N=C(c3ccc(F)cc3)ON1)C(=O)N=2 (stereo in doubt) [(3Z)-3-[5-(4-fluorophenyl)-1,2,4-oxadiazol-3-ylidene]-6-methoxy-quinolin-2-one] | 99.2 | 2.18 | 2.73
8 | O=C(O)c1cccc(-n2cccc2/C=N/O)c1 [3-[2-(Hydroxyiminomethyl)pyrrol-1-yl]benzoic acid] | 58.1 | 1.4 | 1.45
9 | O=C1CC(=O)N(Cc2ccco2)C(=O)N1 [1-(2-Furylmethyl)-1,3-diazinane-2,4,6-trione] | 84.9 | 1.31 | 1.67
10 | Cc1ccc2c(c1C)NC(C(=O)O)C1CC=CC21 (stereo not drawn) [6,7-dimethyl-3a,4,5,9b-tetrahydro-3H-cyclopenta[c]quinoline-4-carboxylic acid] | 102 | 2.12 | 2.01
11 | Cc1ccc(-c2nn3c(C)nnc3s2)cc1NC(=O)c1ccc(-c2ccc(Cl)cc2Cl)o1 [5-(2,4-Dichlorophenyl)-N-[2-methyl-5-(2-methyl-6-thia-1,3,4,8-tetrazabicyclo[3.3.0]octa-2,4,7-trien-7-yl)phenyl]furan-2-carboxamide] | 92.4 | 2.12 | 1.3
12 | CCC1=NC2Sc3ccccc3C(=O)C2C(=O)N1Cc1ccco1 (stereo not drawn) | 79.4 | 15.1 | 1.27
13 | CCOC(=O)C1CCN(C(=O)Nc2ccc3nc(-c4ccco4)c(-c4ccco4)nc3c2)CC1 [Ethyl 1-[[2,3-bis(2-furyl)quinoxalin-6-yl]carbamoyl]piperidine-4-carboxylate] | 103 | 1.12 | 1.95
14 | Cn1cnnc1SCC(=O)Nc1sc2c(c1C(=O)ON)CCC2 [N-[3-(aminooxycarbonyl)-5,6-dihydro-4H-cyclopenta[b]thiophen-2-yl]-2-(4-methyl-4H-1,2,4-triazol-3-ylthio)acetamide] | 90.2 | 2.43 | 2.33
15 | CCc1ccc(OCC(=O)NC2=CC(=O)/C(=C3/Nc4ccccc4O3)C=C2)cc1 [N-[(4Z)-4-(3H-Benzooxazol-2-ylidene)-3-oxo-1-cyclohexa-1,5-dienyl]-2-(4-ethylphenoxy)acetamide] | 59 | 5.28 | 0.29
16 | O=C(COC(=O)c1cccc(S(=O)(=O)N2CCN(c3ccccc3)CC2)c1)NCc1ccco1 [2-Furylmethylcarbamoylmethyl 3-(4-phenylpiperazin-1-yl)sulfonylbenzoate] | 50.7 | 4.97 | 2.07
17 | CCOC(=O)c1ccc2c(c1)C1C=CCC1C(C(=O)O)N2 (stereo not drawn) [8-(ethoxycarbonyl)-3a,4,5,9b-tetrahydro-3H-cyclopenta[c]quinoline-4-carboxylic acid] | 103 | 0.28 | 2.97
18 | O=C(CCS(=O)(=O)c1ccc(Br)cc1)NCc1cccs1 [3-(4-Bromophenyl)sulfonyl-N-(thiophen-2-ylmethyl)propanamide] | 103 | 68.3 | 1.24
19 | COc1ccc2c(c1)=CC(=C1N=C(c3ccccc3)ON1)C(=O)N=2 (stereo in doubt) [(3Z)-6-methoxy-3-(5-phenyl-1,2,4-oxadiazol-3-ylidene)quinolin-2-one] | 77.1 | 4.23 | 4.29
20 | CCCCC[C@H](O)/C=C/[C@H]1C=CC(=O)[C@@H]1C/C=C\CCCC(=O)O [(Z)-7-[(1R,2S)-2-[(E,3S)-3-Hydroxyoct-1-enyl]-5-oxo-1-cyclopent-3-enyl]hept-5-enoic acid] | 57.3 | 13.7 | 2.49
21 | COc1ccc(OC)c(N2C(=O)[C@H]3C(c4ccccc4Cl)=NO[C@@H]3C2=O)c1 [(1S,5S)-2-(2-chlorophenyl)-7-(2,5-dimethoxyphenyl)-4-oxa-3,7-diazabicyclo[3.3.0]oct-2-ene-6,8-dione] | 85.1 | 8.25 | 2.27
22 | Cc1ccc(C)n1-c1cccc(C(=O)O)c1 [3-(2,5-Dimethylpyrrol-1-yl)benzoic acid] | 102 | 1.3 | 2.59
23 | Cc1nnc2sc(-c3ccc(NC(=O)c4ccc(-c5ccc(Cl)cc5Cl)o4)cc3)nn12 [5-(2,4-Dichlorophenyl)-N-[4-(2-methyl-6-thia-1,3,4,8-tetrazabicyclo[3.3.0]octa-2,4,7-trien-7-yl)phenyl]furan-2-carboxamide] | 102 | 1.5 | 1.94
24 | O=C1CCCC2=C1C(c1ccco1)Nc1ccc3ccccc3c12 (stereo not drawn) [5-(Furan-2-yl)-2,3,5,6-tetrahydrobenzo[a]phenantridin-4(1H)-one] | 59.4 | 5.95 | 2.08
25 | COc1cccc(C(=O)NC2CC3CCCC(C2)N3CC(=O)Nc2ccccc2)c1 (stereo not drawn) [3-methoxy-N-[9-(phenylcarbamoylmethyl)-9-azabicyclo[3.3.1]non-7-yl]benzamide hydrochloride] | 103 | 4.67 | 4.22
26 | Cc1cc(C)n(-c2nc(Nc3ccccc3)nc(-n3nc(C)cc3C)n2)n1 [4,6-bis(3,5-Dimethylpyrazol-1-yl)-N-phenyl-1,3,5-triazin-2-amine] | 50.5 | 21.6 | 2.83
27 | c1ccc(CSc2nnc(-c3ccco3)c(-c3ccco3)n2)cc1 [3-Benzylsulfanyl-5,6-bis(2-furyl)-1,2,4-triazine] | 53.9 | 2.74 | 1.32
28 | CC(=O)OCC1=C(C(=O)[O-])N2C(=O)[C@H](NC(=O)Cc3cccs3)[C@H]2SC1.[Na+] [Sodium (6R,7S)-3-(acetyloxymethyl)-8-oxo-7-[(2-thiophen-2-ylacetyl)amino]-5-thia-1-azabicyclo[4.2.0]oct-2-ene-2-carboxylate] | 96.2 | 0.92 | 1.12
29 | O=C(O)c1c[nH]c2ccc(S(=O)(=O)N3CCN(c4ccc(F)cc4)CC3)cc2c1=O [6-[4-(4-Fluorophenyl)piperazin-1-yl]sulfonyl-4-oxo-1H-quinoline-3-carboxylic acid] | 103 | 4.66 | 2.66
30 | O=C(O)c1ccccc1-c1ccc(/C=c2\sc3nc4cc(Br)cnc4n3c2=O)o1 | 102 | 1.79 | 7.56
